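How tested: cells in 96-well plates exposed to compound for 48 hours at five concentrations. GI50 = concentration required for 50% inhibition of growth. At the TGI there is no net growth.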
Legend:
Test in all cases: NCI-60 cell line screen, 48 h
786-0 renal = system: 786-0 renal
A498 renal = system: A498 renal
A549 NSCLC = system: A549 NSCLC
ACHN renal = system: ACHN renal
BT-549 breast = system: BT-549 breast
CAKI-1 renal = system: CAKI-1 renal
CCRF-CEM leukemia = system: CCRF-CEM leukemia
COLO 205 colon = system: COLO 205 colon
DU-145 prostate = system: DU-145 prostate
EKVX NSCLC = system: EKVX NSCLC
HCC-2998 colon = system: HCC-2998 colon
HCT-116 colon = system: HCT-116 colon
HCT-15 colon = system: HCT-15 colon
HL-60(TB) leukemia = system: HL-60(TB) leukemia
HOP-62 NSCLC = system: HOP-62 NSCLC
HOP-92 NSCLC = system: HOP-92 NSCLC
HS 578T breast = system: HS 578T breast
HT29 colon = system: HT29 colon
IGROV1 ovarian = system: IGROV1 ovarian
K-562 leukemia = system: K-562 leukemia
KM12 colon = system: KM12 colon
LOX IMVI melanoma = system: LOX IMVI melanoma
M14 melanoma = system: M14 melanoma
MALME-3M melanoma = system: MALME-3M melanoma
MCF7 breast = system: MCF7 breast
MDA-MB-231 breast = system: MDA-MB-231 breast
MDA-MB-435 = system: MDA-MB-435
MOLT-4 leukemia = system: MOLT-4 leukemia
NCI-H226 lung = system: NCI-H226 lung
NCI-H23 lung = system: NCI-H23 lung
NCI-H460 lung = system: NCI-H460 lung
NCI-H522 lung = system: NCI-H522 lung
NCI/ADR-RES ovarian = system: NCI/ADR-RES ovarian
OVCAR-3 ovarian = system: OVCAR-3 ovarian
OVCAR-4 ovarian = system: OVCAR-4 ovarian
OVCAR-5 ovarian = system: OVCAR-5 ovarian
OVCAR-8 ovarian = system: OVCAR-8 ovarian
PC-3 prostate = system: PC-3 prostate
RPMI-8226 leukemia = system: RPMI-8226 leukemia
RXF 393 renal = system: RXF 393 renal
SF-268 CNS = system: SF-268 CNS
SF-295 CNS = system: SF-295 CNS
SF-539 CNS = system: SF-539 CNS
SK-MEL-2 melanoma = system: SK-MEL-2 melanoma
SK-MEL-28 melanoma = system: SK-MEL-28 melanoma
SK-MEL-5 melanoma = system: SK-MEL-5 melanoma
SK-OV-3 ovarian = system: SK-OV-3 ovarian
SN12C renal = system: SN12C renal
SNB-19 CNS = system: SNB-19 CNS
SNB-75 CNS = system: SNB-75 CNS
SR leukemia = system: SR leukemia
SW-620 colon = system: SW-620 colon
T-47D breast = system: T-47D breast
TK-10 renal = system: TK-10 renal
U251 CNS = system: U251 CNS
UACC-257 melanoma = system: UACC-257 melanoma
UACC-62 melanoma = system: UACC-62 melanoma
UO-31 renal = system: UO-31 renal

Cc1ccc(C[P+](c2ccccc2)(c2ccccc2)c2ccccc2)cc1
GI50 (786-0 renal): 1710 nM
TGI (786-0 renal): 8020 nM
GI50 (A498 renal): 1840 nM
TGI (A498 renal): 7400 nM
GI50 (A549 NSCLC): 684 nM
GI50 (ACHN renal): 5940 nM
TGI (ACHN renal): > 74900 nM
GI50 (BT-549 breast): 671 nM
TGI (BT-549 breast): 14300 nM
GI50 (CAKI-1 renal): 486 nM
TGI (CAKI-1 renal): 17300 nM
GI50 (CCRF-CEM leukemia): 1310 nM
GI50 (COLO 205 colon): 740 nM
TGI (COLO 205 colon): 6700 nM
GI50 (DU-145 prostate): 1380 nM
TGI (DU-145 prostate): 43400 nM
GI50 (EKVX NSCLC): 369 nM
TGI (EKVX NSCLC): > 58600 nM
GI50 (HCC-2998 colon): 441 nM
TGI (HCC-2998 colon): 6410 nM
GI50 (HCT-116 colon): 382 nM
TGI (HCT-116 colon): 5210 nM
GI50 (HCT-15 colon): 11700 nM
TGI (HCT-15 colon): > 73100 nM
GI50 (HL-60(TB) leukemia): 455 nM
TGI (HL-60(TB) leukemia): 3360 nM
GI50 (HOP-62 NSCLC): 1550 nM
TGI (HOP-62 NSCLC): 6280 nM
GI50 (HOP-92 NSCLC): 768 nM
TGI (HOP-92 NSCLC): 22200 nM
GI50 (HS 578T breast): 366 nM
TGI (HS 578T breast): 3110 nM
GI50 (HT29 colon): 427 nM
TGI (HT29 colon): > 41600 nM
GI50 (IGROV1 ovarian): 2330 nM
TGI (IGROV1 ovarian): > 100000 nM
GI50 (K-562 leukemia): 574 nM
TGI (K-562 leukemia): > 24600 nM
GI50 (KM12 colon): 438 nM
TGI (KM12 colon): 4500 nM
GI50 (LOX IMVI melanoma): 1070 nM
TGI (LOX IMVI melanoma): 4240 nM
GI50 (M14 melanoma): 1320 nM
TGI (M14 melanoma): 11100 nM
GI50 (MALME-3M melanoma): 428 nM
TGI (MALME-3M melanoma): 14500 nM
GI50 (MCF7 breast): 701 nM
TGI (MCF7 breast): > 33000 nM
GI50 (MDA-MB-231 breast): 2540 nM
TGI (MDA-MB-231 breast): 29300 nM
GI50 (MDA-MB-435): 515 nM
TGI (MDA-MB-435): 5400 nM
GI50 (MOLT-4 leukemia): 2440 nM
TGI (MOLT-4 leukemia): > 21700 nM
GI50 (NCI-H226 lung): 1730 nM
TGI (NCI-H226 lung): > 25800 nM
GI50 (NCI-H23 lung): 554 nM
TGI (NCI-H23 lung): 5460 nM
GI50 (NCI-H460 lung): 760 nM
TGI (NCI-H460 lung): 6990 nM
GI50 (NCI-H522 lung): 750 nM
GI50 (NCI/ADR-RES ovarian): 37700 nM
TGI (NCI/ADR-RES ovarian): > 100000 nM
GI50 (OVCAR-3 ovarian): 638 nM
TGI (OVCAR-3 ovarian): 5190 nM
GI50 (OVCAR-4 ovarian): 768 nM
TGI (OVCAR-4 ovarian): > 100000 nM
GI50 (OVCAR-5 ovarian): 1930 nM
TGI (OVCAR-5 ovarian): > 25200 nM
GI50 (OVCAR-8 ovarian): 781 nM
TGI (OVCAR-8 ovarian): 4650 nM
GI50 (PC-3 prostate): 997 nM
TGI (PC-3 prostate): > 100000 nM
GI50 (RPMI-8226 leukemia): 201 nM
TGI (RPMI-8226 leukemia): 18000 nM
GI50 (RXF 393 renal): 3240 nM
TGI (RXF 393 renal): 20300 nM
GI50 (SF-268 CNS): 2700 nM
TGI (SF-268 CNS): > 57800 nM
GI50 (SF-295 CNS): 990 nM
TGI (SF-295 CNS): 8110 nM
GI50 (SF-539 CNS): 2150 nM
TGI (SF-539 CNS): > 46400 nM
GI50 (SK-MEL-2 melanoma): 2120 nM
TGI (SK-MEL-2 melanoma): > 100000 nM
GI50 (SK-MEL-28 melanoma): 987 nM
TGI (SK-MEL-28 melanoma): 10600 nM
GI50 (SK-MEL-5 melanoma): 321 nM
TGI (SK-MEL-5 melanoma): 1270 nM
GI50 (SK-OV-3 ovarian): 2570 nM
TGI (SK-OV-3 ovarian): > 26600 nM
GI50 (SN12C renal): 1790 nM
TGI (SN12C renal): 23700 nM
GI50 (SNB-19 CNS): 2180 nM
TGI (SNB-19 CNS): > 39500 nM
GI50 (SNB-75 CNS): 1550 nM
TGI (SNB-75 CNS): 18800 nM
GI50 (SR leukemia): 1040 nM
GI50 (SW-620 colon): 1360 nM
TGI (SW-620 colon): 12200 nM
GI50 (T-47D breast): 314 nM
GI50 (TK-10 renal): 1710 nM
TGI (TK-10 renal): 23400 nM
GI50 (U251 CNS): 628 nM
TGI (U251 CNS): > 39300 nM
GI50 (UACC-257 melanoma): 267 nM
TGI (UACC-257 melanoma): 3560 nM
GI50 (UACC-62 melanoma): 907 nM
TGI (UACC-62 melanoma): 14100 nM
GI50 (UO-31 renal): 6080 nM
TGI (UO-31 renal): 39400 nM
